{"source": "patent US8871681B2", "about": "“Herbicidal compositions comprising 4-amino-3-chloro-5-fluoro-6-(4-chloro-2-fluoro-3-methoxyphenyl) pyridine-2-carboxylic acid or a derivative thereof and certain sulfonylureas” (Dow AgroSciences LLC, priority 2012, dated 2014)", "key": {"[1]": {"tested_on": "DIGSA (Digitaria sanguinalis, large crabgrass)", "assay": "Postemergence foliar-applied weed control, direct seeded rice, greenhouse (Example I)", "assay_type": "in vivo, Digitaria sanguinalis (L.) Scop.", "details": "for Visual Weed Control (%) - 21 DAA DIGSA Obs: Table 27, foliar-applied", "how_it_was_run": "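Greenhouse-grown plants (14 h photoperiod, 29/26 °C day/night) at first to fourth true leaf stage sprayed overhead at 187 L/ha with Compound A (acid equivalent basis) alone or mixed with sulfonylurea ALS inhibitors (active ingredient basis). Final spray contained 1.25% v/v crop oil concentrate; controls received solvent blank.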"}, "[2]": {"tested_on": "CYPES (Cyperus esculentus, yellow nutsedge)", "assay": "Postemergence foliar-applied weed control, direct seeded rice, greenhouse (Example I)", "assay_type": "in vivo, Cyperus esculentus L.", "details": "20 DAA", "text": "Seeds or nutlets of the desired test plant species were planted in a soil matrix prepared by mixing a loam or sandy loam soil (e.g., 28.6 percent silt, 18.8 percent clay, and 52.6 percent sand, with a pH of about 5.8 and an organic matter content of about 1.8 percent) and calcareous grit in an 80 to 20 ratio. The soil matrix was contained in plastic pots with a volume of 1 quart and a surface area of 83.6 square centimeters (cm^2). When required to ensure good germination and healthy plants, a fungicide treatment and/or other chemical or physical treatment was applied. The plants were grown for 8-22 days in a greenhouse with an approximate 14 h photoperiod which was maintained at about 29° C. during the day and 26° C. during the night. Nutrients (Peters Excel® 15-5-15 5-Ca 2-Mg and iron chelate) were applied in the irrigation solution as needed and water was added on a regular basis. Supplemental lighting was provided with overhead metal halide 1000-Watt lamps as necessary. The plants were employed for testing when they reached the first through fourth true leaf stage.\nTreatments consisted of the acid or esters of 4-amino-3-chloro-5-fluoro-6-(4-chloro-2-fluoro-3-methoxy-phenyl)pyridine-2-carboxylic acid (Compound A), each formulated as an SC, and various herbicidal components alone and in combination. Forms of compound A were applied on an acid equivalent basis.\nOther herbicidal components were applied on an active ingredient basis and included acetolactate synthase (ALS)-inhibiting herbicides (sulfonylurea chemical class) azimsulfuron formulated as Gulliver®, bensulfuron-methyl formulated as Londax® 60DF, cyclosulfamuron (technical material), ethoxysulfuron formulated as Sunrice® 15 WDG, flazasulfuron formulated as Katana®, flucetosulfuron formulated as Sukedachi® 1KG G, foramsulfuron formulated as Option®, imazosulfuron formulated as Brazzos® WG, iodosulfuron-methyl-sodium formulated as Hussar®, metsulfuron-methyl formulated as Lorate®, nicosulfuron formulated as Accent®, orthosulfamuron formulated as Strada® WG, primisulfuron-methyl (technical material), propyrisulfuron formulated as Zeta One®, rimsulfuron formulated as Matrix® WG, sulfometuron-methyl formulated as Oust®, and trifloxysulfuron-sodium formulated as Monument® 75WG.\nTreatment requirements were calculated based upon the rates being tested, the concentration of active ingredient or acid equivalent in the formulation, and a 12 mL application volume at a rate of 187 L/ha.\nFor treatments comprised of formulated compounds, measured amounts of compounds were placed individually in 25 mL glass vials and diluted in a volume of 1.25% (v/v) Agri-Dex® crop oil concentrated to obtain 12× stock solutions. […] Application solutions were prepared by adding an appropriate amount of each stock solution (e.g., 1 mL) and diluted to the appropriate final concentrations with the addition of 10 mL of an aqueous mixture of 1.25% (v/v) crop oil concentrate so that the final spray solutions contained 1.25+/−0.05% (v/v) Agrcrop oil concentrate.\nFor treatments comprised of formulated and technical compounds, weighed amounts of the technical materials were placed individually in 25 mL glass vials and dissolved in a volume of 97:3 v/v acetone/DMSO to obtain 12× stock solutions, and measured amounts of the formulated compounds were placed individually in 25 mL glass vials and diluted in a volume of 1.25% (v/v) crop oil concentrate to obtain 12× stock solutions. […] Application solutions were prepared by adding an appropriate amount of each stock solution (e.g., 1 mL) and diluted to the appropriate final concentrations with the addition of an appropriate amount of an aqueous mixture of 1.5% (v/v) crop oil concentrate so that the final spray solutions contained 1.25% (v/v) crop oil concentrate. […]"}, "[3]": {"tested_on": "MATCH (Chamomilla chamomilla, scented mayweed)", "assay": "Post-emergence foliar-applied weed control in cereal crops, greenhouse (Example III)", "assay_type": "in vivo, Chamomilla chamomilla (L.) Rydb.", "method": "Seeds of the desired test plant species were planted in Sun Gro MetroMix® 306 planting mixture, which typically has a pH of 6.0 to 6.8 and an organic matter content of about 30 percent, in plastic pots with a surface area of 103.2 square centimeters (cm^2). When required to ensure good germination and healthy plants, a fungicide treatment and/or other chemical or physical treatment was applied. The plants were grown for 7-36 days in a greenhouse with an approximate 14 hour photoperiod which was maintained at about 18° C. during the day and 17° C. during the night. Nutrients and water were added on a regular basis and supplemental lighting was provided with overhead metal halide 1000-Watt lamps as necessary. The plants were employed for testing when they reached the second or third true leaf stage.\nTreatments consisted of the benzyl ester of 4-amino-3-chloro-5-fluoro-6-(4-chloro-2-fluoro-3-methoxy-phenyl)pyridine-2-carboxylic acid (Compound A), formulated as an SC (suspension concentrate), and a second cereal herbicide alone and in combination.\nMeasured aliquot of benzyl ester of 4-amino-3-chloro-5-fluoro-6-(4-chloro-2-fluoro-3-methoxy-phenyl)pyridine-2-carboxylic acid (Compound A) was placed in 25 milliliter (mL) glass vials and diluted in a volume of 1.25% (v/v) Agri-dex crop oil concentrated to obtain stock solutions. Compound requirements are based upon a 12 mL application volume at a rate of 187 liters per hectare (L/ha). Spray solutions of the second cereal herbicide and experimental compound mixtures were prepared by adding the stock solutions to the appropriate amount of dilution solution to form 12 mL spray solution with active ingredients in two- and three-way combinations. Formulated compounds were applied to the plant material with an overhead Mandel track sprayer equipped with an 8002E nozzle calibrated to deliver 187 L/ha over an application area of 0.503 square meters (m^2) at a spray height of 18 inches (46 cm) above average plant canopy. Control plants were sprayed in the same manner with the solvent blank.\nThe treated plants and control plants were placed in a greenhouse as described above and watered by sub-irrigation to prevent wash-off of the test compounds. After 20-22 days, the condition of the test plants as compared with that of the control plants was determined visually and scored on a scale of 0 to 100 percent where 0 corresponds to no injury and 100 corresponds to complete kill.\nColby's equation was used to determine the herbicidal effects expected from the mixtures (Colby, S. R. 1967. Calculation of the synergistic and antagonistic response of herbicide combinations. Weeds 15:20-22.).\nThe following equation was used to calculate the expected activity of mixtures containing two active ingredients, A and B: Expected=A+B−(A×B/100)"}}, "note": "Values joined by “and” are separate entries in the source; they are usually repeats but may differ in a detail not shown here. Equal values may be shown once.", "data": [{"compound": "COc1c(Cl)ccc(-c2nc(C(=O)O)c(Cl)c(N)c2F)c1F", "note": "[Compound A Acid, 4-amino-3-chloro-5-fluoro-6-(4-chloro-2-fluoro-3-methoxy-phenyl)pyridine-2-carboxylic acid]", "values": [{"measurement": "Visual Weed Control (%) Obs", "setting": "[1]; 20 DAA, 5.3 gae/ha", "result": 10, "unit": "%"}, {"measurement": "Visual Weed Control (%) Obs", "setting": "[1]; 24 DAA, 17.5 gae/ha", "result": 25, "unit": "%"}, {"measurement": "Visual Weed Control (%) Obs", "setting": "[2]; 4.38 gae/ha", "result": 30, "unit": "%"}, {"measurement": "Visual Weed Control (%) Obs", "setting": "[2]; 5.3 gae/ha", "result": 0, "unit": "%"}, {"measurement": "Visual Weed Control (%) Obs", "setting": "[2]; 8.75 gae/ha", "result": 70, "unit": "%"}]}, {"compound": "COc1c(Cl)ccc(-c2nc(C(=O)OCc3ccccc3)c(Cl)c(N)c2F)c1F", "note": "[Compound A Benzyl Ester]", "values": [{"measurement": "Visual Weed Control (%) Obs", "setting": "[1]; 20 DAA, 4.38 gae/ha", "result": 20, "unit": "%"}, {"measurement": "Visual Weed Control (%) Obs", "setting": "[1]; 20 DAA, 8.75 gae/ha", "result": 15, "unit": "%"}, {"measurement": "Visual Weed Control (%) Obs", "setting": "[1]; 20 DAA, 17.5 gae/ha", "result": 20, "unit": "%"}, {"measurement": "Visual Weed Control (%) Obs", "setting": "[1]; 22 DAA, 8 gae/ha", "result": 20, "unit": "%"}, {"measurement": "Visual Weed Control (%) Obs", "setting": "[1]; 22 DAA, 16 gae/ha", "result": 20, "unit": "%"}, {"measurement": "Visual Weed Control (%) Obs", "setting": "[1]; 22 DAA, 32 gae/ha", "result": 35, "unit": "%"}, {"measurement": "Visual Weed Control (%) - 21 DAA DIGSA Obs", "setting": "[1]; 8 gae/ha alone", "result": 25, "unit": "%"}, {"measurement": "Visual Weed Control (%) - 21 DAA DIGSA Obs", "setting": "[1]; 16 gae/ha alone", "result": 30, "unit": "%"}, {"measurement": "Visual Weed Control (%) - 21 DAA DIGSA Obs", "setting": "[1]; 32 gae/ha alone", "result": 50, "unit": "%"}, {"measurement": "Visual Weed Control (%) Obs", "setting": "[2]; 4.38 gae/ha", "result": "70% and 85%"}, {"measurement": "Visual Weed Control (%) Obs", "setting": "[2]; 8.75 gae/ha", "result": "80% and 90%"}, {"measurement": "Visual Weed Control (%) Obs", "setting": "[2]; 17.5 gae/ha", "result": 90, "unit": "%"}, {"measurement": "Weed Control MATCH Obs", "setting": "[3]; Table 54, after 20-22 days, 8.75 gai/ha alone", "result": 20, "unit": "%"}, {"measurement": "Weed Control MATCH Obs", "setting": "[3]; Table 55, after 20-22 days, 8.75 gai/ha alone", "result": 20, "unit": "%"}, {"measurement": "Weed Control MATCH Obs", "setting": "[3]; Table 56, after 20-22 days, 8.75 gai/ha alone", "result": 20, "unit": "%"}, {"measurement": "Weed Control MATCH Obs", "setting": "[3]; Table 57, after 20-22 days, 8.75 gai/ha Compound A Benzyl Ester alone", "result": 20, "unit": "%"}, {"measurement": "Weed Control MATCH Obs", "setting": "[3]; Table 59 (cereal), after 20-22 days, 8.75 gai/ha alone", "result": 20, "unit": "%"}]}, {"compound": "COC(=O)c1ccccc1S(=O)(=O)NC(=O)Nc1nc(C)nc(OC)n1", "note": "[Metsulfuron-methyl, methyl 2-[[[[(4-methoxy-6-methyl-1,3,5-triazin-2-yl)amino]carbonyl]amino]sulfonyl]benzoate, reference compound]", "values": [{"measurement": "Weed Control MATCH Obs", "setting": "[3]; Table 56, after 20-22 days, 1.1 gai/ha alone", "result": 89, "unit": "%"}]}]}
